Experimental data taken from US5395610A, “Agents for potentiating the effects of antitumor agents and combating multiple drug resistance” (Burroughs-Wellcome Co., priority 1989, dated 1995).
Counter-ions that a name gives are not always drawn.

Legend:
in vitro = type: cell-based, Chinese hamster; conditions: hamster, cho auxb1 cells
[1] = test system: Chinese hamster ovary (CHO) cells, drug resistant C5S32; assay: In vitro cytotoxicity / potentiation of Actinomycin D in Chinese hamster ovary cells, drug resistant C5S32 (MTT); type: cell-based; conditions: 96 h, fraction of Act D alone (1.00)
[2] = as above; type: cell-based; conditions: hamster, cho c5s32 cells, fraction of untreated cultures (1.00), read-out: Cytotoxicity, normalized absorbance, Drug Resistant C5S32, 0 (no Act D); for viability at 96 h, 1 µM: 1 μM potentiating agent alone; for viability at 96 h, 10 µM: 10 μM potentiating agent alone
[3] = test system: human KB epidermoid carcinoma cells, wildtype KB 3-1; assay: In vitro cytotoxicity / potentiation of Actinomycin D in human KB epidermoid carcinoma cells, wildtype KB 3-1 (MTT); type: cell-based; conditions: 96 h, fraction of Act D alone
[4] = as above; type: cell-based; conditions: human, kb 3-1 cells, fraction of untreated cultures, read-out: Cytotoxicity, normalized absorbance, Wildtype KB 3-1, 0 (no Act D); for viability at 96 h, 1 µM: 1 μM potentiating agent alone; for viability at 96 h, 10 µM: 10 μM potentiating agent alone
[5] = In vitro cytotoxicity / potentiation of Actinomycin D in human KB epidermoid carcinoma cells, drug resistant KB V-1 (MTT); type: cell-based; conditions: human, kb v-1 cells, fraction of untreated cultures, read-out: Cytotoxicity, normalized absorbance, Drug Resistant KB V-1, 0 (no Act D); for viability at 96 h, 1 µM: 1 μM potentiating agent alone; for viability at 96 h, 10 µM: 10 μM potentiating agent alone
[6] = test system: human KB epidermoid carcinoma cells, drug resistant KB V-1; assay: as above; type: cell-based; conditions: 96 h, fraction of Act D alone
[7] = 1 μM potentiating agent + Act D 0.5 μM
[8] = 10 μM potentiating agent + Act D 0.5 μM
[9] = 1 μM potentiating agent + Act D 20 nM
[10] = 10 μM potentiating agent + Act D 20 nM

Row | SMILES | viability at 96 h, 1 µM (in vitro) [%] | viability at 96 h, 10 µM (in vitro) [%] | Synergism with Actinomycin D, normalized absorbance, Drug Resistant C5S32, +ACT D [1, 7] | Synergism with Actinomycin D, normalized absorbance, Drug Resistant C5S32, +ACT D [1, 8] | viability at 96 h, 1 µM [2] [%] | viability at 96 h, 10 µM [2] [%] | Synergism with Actinomycin D, normalized absorbance, Wildtype KB 3-1, +ACT D ([3]; 1 μM potentiating agent + Act D 0.1 nM) | Synergism with Actinomycin D, normalized absorbance, Wildtype KB 3-1, +ACT D ([3]; 10 μM potentiating agent + Act D 0.1 nM) | viability at 96 h, 1 µM [4] [%] | viability at 96 h, 10 µM [4] [%] | viability at 96 h, 1 µM [5] [%] | viability at 96 h, 10 µM [5] [%] | Synergism with Actinomycin D, normalized absorbance, Drug Resistant KB V-1, +ACT D [6, 9] | Synergism with Actinomycin D, normalized absorbance, Drug Resistant KB V-1, +ACT D [6, 10]
1 | Brc1ccc2c(c1)/C(=C\CCN1CCCC1)c1ccccc1CO2 [(G), (Z)-1-[3-(2-Bromo-6,11-dihydrodibenz [b,e]-oxepin-11-ylidene)propyl]pyrrolidine] | 100 | 100 | 0.47 | 0.10 | 54 | 15 | 0.80 | 0.87 | 87 | 74 | 86 | 70 | 0.91 | 0.35
2 | C(/CN1CCCC1)=C1\c2ccccc2COc2ccccc21 [(H), hydrochloride] | 100 | 94 | 0.95 | 0.51 | 82 | 53 |  |  |  |  |  |  |  | 
3 | Brc1ccc2c(c1)/C(=C/CCN1CCCC1)c1ccccc1OC2 [(M), (Z)-1-[3-(9-Bromo-6,11-dihydrodibenz [b,e]-oxepin-11-ylidene)propyl]pyrrolidine] | 79 | 84 | 0.83 | 0.35 | 86 | 100 |  |  | 100 | 96 | 95 | 65 | 1.00 | 0.31
4 | CCN(CC)CC/C=C1\c2ccccc2COc2ccc(Br)cc21 [(N), (E) -3-(2-Bromo-6,11-dihydrodibenz [b,e]oxepin-11-ylidene)-N, N-diethylpropylamine] | 86 | 83 | 0.85 | 0.33 | 100 | 80 |  |  |  |  |  |  |  | 
5 | CN(C)CC/C=C1/c2cc(Br)ccc2COc2ccc(Br)cc21 [(U), (Z)-3-(2,9-Dibromo-6,11-dihydrodibenz [b,e]-oxepin-11-ylidene)-N,N-dimethylpropylamine] | 84 | 79 | 0.93 | 0.24 | 94 | 74 |  |  |  |  |  |  |  | 
6 | CN(C)CC/C=C1\c2cc(Br)ccc2COc2ccc(Br)cc21 [(V), (E)-3-(2,9-Dibromo-6,11-dihydrodibenz [b,e]-oxepin-11-ylidene)-N,N-dimethylpropylamine] | 86 | 77 | 0.87 | 0.20 | 91 | 75 |  |  |  |  |  |  |  | 
7 | CN(C)CCC=C1c2ccccc2COc2ccccc21 [(W), doxepin, reference compound] | 100 | 100 | 0.86 | 0.48 | 98 | 55 |  |  |  |  |  |  |  | 
